In brackets after ≈: the same amount, converted by molar mass.
What was measured:
E. coli ATCC BAA-2523 = experiment: Antibacterial effect (MIC), micro-liquid dilution method (CLSI); format: cell-based; conditions: Escherichia coli, ATCCBAA2523
Description: (§1) Three strains Enterobacteriaceae E. coli ATCC 25922, E. coli ATCC BAA-2523, K. pneumonia ATCC BAA-1705 were used to determine the Minimum Inhibitory Concentration (MIC) of each compound by the micro-liquid dilution method according to the requirements of the Institute of Clinical and Laboratory Standard (CLSI). 2-fold series diluted compounds (with a final concentration range […]) were added to a round bottom 96-well plate (Catalog #3788, Corning). A single clone of fresh bacteria on the plate of Mueller Hinton II Agar (MHA, Cat. No. 211438, BD BBL™) after overnight culture was picked and suspended in sterile saline to adjust the concentration to 1×10^8 CFU/mL, and then diluted to 5×10^5 CFU/mL by Cation-Adjusted Mueller Hinton II Broth (MHB, Catalog #212332, BD BBL™), 100 μL of which was added to the round bottom 96-well plate containing the drug. The plate was inverted and incubated at 37° C. for 20-24 hours, and the MIC value was read. The lowest drug concentration that inhibits bacterial growth was defined as MIC.

E. coli ATCC 25922 = experiment: as above; format: cell-based; conditions: Escherichia coli, ATCC25922
Description: as §1

[1] = system: K. pneumoniae ATCC BAA-1705; experiment: as above; format: cell-based; conditions: Klebsiella pneumoniae, ATCCBAA1705
Description: as §1

[2] = Study on pharmacokinetics in mice; format: in vivo, CD-1 mice; conditions: mouse, plasma, CD-1 male mice, 1 mg/kg single intravenous injection
Description: CD-1 male mice aged 7 to 10 weeks were selected and treated by intravenous administration at the dose of 1 mg/kg. The mice were fasted for at least 12 hours before the administration, and resumed feeding 4 hours after the administration. The mice were free to drink during the entire experiment.
On the day of the experiment, the animals in the intravenous group were administered with corresponding compound by a single injection via tail vein with an administration volume of 5 mL/kg. The animals were weighed before the administration, and the administration volume was calculated based on the body weight. The sample collection time was: 0.083, 0.25, 0.5, 1, 2, 4, 8, and 24 h. Approximately 30 μL whole blood was collected through the saphenous vein at each time point to prepare plasma for high performance liquid chromatography-tandem mass spectrometry (LC-MS/MS) to determine the concentration.
All animals were subjected to euthanasia under CO2 anesthesia after the PK samples at the last time point were collected. The non-compartmental model of the pharmacokinetic software WinNonlin™ Version 6.3 (Pharsight, Mountain View, CA) was used to process the data of plasma concentration, and the linear log-trapezoidal method was used to calculate the pharmacokinetic parameters.

`CN[C@@H]1[C@@H](O)[C@@H](O[C@@H]2[C@@H](O)[C@H](O[C@H]3OC(CNCCOCCONC(=N)N)=CC[C@H]3N)[C@@H](N)C[C@H]2NC(=O)[C@@H](O)CCN)OC[C@]1(C)O` [Compound 1] gave an MIC (E. coli ATCC BAA-2523) of 2 µM (≈ 1.39 µg/mL), an MIC (E. coli ATCC 25922) of 2 µM (≈ 1.39 µg/mL) and an MIC [1] of 4 µM (≈ 2.78 µg/mL). It also gave an AUC ([2]; read-out: Area Under the Curve AUC) of 1920 nM·h, a clearance ([2]; read-out: Clearance Rate Cl) of 0.906 L/h/kg and a half-life ([2]; read-out: Half-Life T1/2 (converted)) of 23.8 min. It also gave a Cmax ([2]; read-out: Maximum Concentration Cmax) of 7.09 µM and a Vd ([2]; read-out: Volume of Distribution Vd) of 0.369 L/kg.

Reference: patent US12338263B2, “Antibacterial aminoglycoside derivatives” (priority 2019, dated 2025)
